Test results taken from paper PMC2653189 (PLoS ONE, 2009).

What was measured:
[1] = system: IL-6-mediated Stat3 nuclear translocation (GFP-Stat3α); assay: HTFM nuclear translocation assay in MEF/GFP-Stat3α cells; format: cell-based, murine; details: Mus musculus, compound 1 hour, then IL-6 200 ng/ml and IL-6sR 250 ng/ml 30 min, read-out: HTFM IC50, inhibition of IL-6-mediated Stat3 nuclear translocation
Protocol: Confocal and high-throughput fluorescence microscopy (HTFM) of MEF/GFP-Stat3α cells were performed as described. Briefly, for confocal fluorescence microscopy, cells were grown in 6-well plates containing a cover slip. For HTFM, cells were seeded into 96-well CC3 plates at a density of 5,000 cells/well using an automated plating system. Cells were cultured under standard conditions until 85–90% confluent. Cells were pre-treated with compound for 1 hour at 37°C then stimulated with IL-6 (200 ng/ml) and IL-6sR (250 ng/ml) for 30 minutes to provide optimal Stat3 activation and nuclear translocation in these cells, as described. Cells were fixed with 4% formaldehyde in PEM Buffer (80 mM Potassium PIPES, pH 6.8, 5 mM EGTA pH 7.0, 2 mM MgCl2) for 30 minutes at 4°C, quenched in 1 mg/ml of NaBH4 (Sigma) in PEM buffer and counterstained for 1 min in 4,6-diamidino-2-phenylindole (DAPI; Sigma; 1 mg/ml) in PEM buffer. Cover slips were examined by confocal fluorescent microscopy. Plates were analyzed by automated HTFM using the Cell Lab IC Image Cytometer (IC100) platform and Cytoshop Version 2.1 analysis software (Beckman Coulter). Nuclear translocation is quantified by using the fraction localized in the nucleus (FLIN) measurement. FLIN values were normalized by subtracting the FLIN for unstimulated cells then dividing this difference by the maximum difference (delta, Δ) in FLIN (FLIN in cells stimulated with IL-6/sIL-6R in the absence of compound minus FLIN of unstimulated cells). This ratio was multiplied by 100 to obtain the percentage of maximum difference in FLIN and was plotted, where indicated, as a function of the log compound concentration. The best-fitting curve and IC50 value were determined using 4-Parameter Logistic Model/Dose Response/XLfit 4.2, IDBS software.
Figure 4 Inhibition of cytoplasmic-to-nuclear translocation of Stat3 assessed by confocal and high-throughput fluorescence microscopy (HTFM). […] Coverslips were examined by confocal fluorescent microscopy using filters to detect GFP (column one), DAPI (column two) or both (merge; column three). In panel B, MEF-GFP-Stat3 cells were grown in 96-well plates with optical glass bottoms and pre-treated with the indicated compound at the indicated concentrations in quadruplicate for 1 hour then stimulated with IL-6 (200 ng/ml) and IL-6sR (250 ng/ml) for 30 minutes. Cells were fixed and the plates were examined by high-throughput microscopy to determine the fluorescence intensity in the nucleus (FLIN). The percent of maximum change (delta, Δ) in FLIN was calculated as described in the Methods and plotted as a function of the log of the compound concentration. […] Best-fit curves were determined using 4-Parameter Logistic Model/Dose Response/XLfit 4.2, IDBS software and were used to calculate the IC50 values (Table 2).

[2] = system: breast cancer cell lines with constitutive Stat3 activity—MDA-MB-468, MDA-MB-231 and MDA-MB-435; assay: Apoptosis assay, summary over the cell lines with constitutive Stat3 activity; format: cell-based; details: Homo sapiens, 24 hr, read-out: EC50 apoptosis induction, range over three cell lines
Protocol: Human breast carcinoma cell lines MDA-MB-468, MDA-MB-231, MBA-MD-435 and MCF7 were kindly provided by Dr. Powel H. Brown (Breast Cancer Center, Baylor College of Medicine). Breast cancer cell line, MDA-MB-453 was kindly provided by Dr. Shou Jiang (Breast Cancer Center, Baylor College of Medicine). All cell lines were grown in DMEM medium supplemented with 10% fetal bovine serum (FBS), 25,000 units penicillin G, 25,000 µg streptomycin, and 131.4 mg L-Glutamine and cultured in the incubator under the condition of 95% air, 5% CO2 at 37°C [33]. Cells were seeded at 2,500 cells/cm^2 into 12-well plates. At 80% confluency, cells were washed with PBS and supplemented with fresh medium containing compound or the topoisomerase I-inhibitor, camptothecin, at 0, 0.1, 0.3, 1, 3, 10, 30, 100, 300 µM. At 24 hours, treatment was terminated by removing the medium from each well. Cells were lysed with cell lysis buffer (600 µl for 30 minutes at 25°C). Cell lysate (200 µl) was centrifuged at 200 g for 10 minutes and 20 µl of each supernatant was assayed for nucleosomes using the Cell Death Detection ELISA (Roche Applied Science) as described by the manufacturer. The percent maximum nucleosome level was calculated by dividing the nucleosome level by the maximum nucleosome level achieved in the assay and multiplying by 100.
MDA-MB-468 (panel A), MDA-MB-231 (panel B), MDA-MB-435 (panel C), MCF7 (panel D) and MDA-MB-453 (panel E) were seeded in 12-well plates, grown overnight then treated with the indicated compound for 24 hr. Cells were centrifuged and the supernatants assayed for nucleosome levels by ELISA. The percent maximum nucleosome level was calculated (nucleosome level ÷ maximum nucleosome level achieved in the assay ×100) and plotted as a function of the log compound concentration. The best-fitting curve was determined using 4-ParameterLogistic Model/Dose Response One Site/XLfit 4.2, IDBS software and was used to determine the EC50 value (Table 3).

IC50 [1]: 131 µM | EC50 [2]: 2.3 to 26.9 µM
Compound: O=C(O)c1ccc(C=CC(=O)c2ccc3c(c2)OCCO3)cc1 [Cpd3, 4-[3-(2,3-dihydro-1,4-benzodioxin-6-yl)-3-oxo-1-propen-1-yl]benzoic acid]
